Entries after “also recorded” stand apart in the source; their conditions may differ.

The source of these data is PMC3234597, “Two Panels of Steroid Receptor Luciferase Reporter Cell Lines for Compound Profiling” (Combinatorial Chemistry & High Throughput Screening, 2011).

Holding throughout (type): cell-based
Test [1] concerns the target T1, human GR (full-length) (Homo sapiens, UniProt P04150).
T1 construct: expression vectors encoding full-length steroid receptors: pcDNA3-hAR and pcDNA3-hGR; host or cells: U2OS
T1 sequence (P04150 1-777): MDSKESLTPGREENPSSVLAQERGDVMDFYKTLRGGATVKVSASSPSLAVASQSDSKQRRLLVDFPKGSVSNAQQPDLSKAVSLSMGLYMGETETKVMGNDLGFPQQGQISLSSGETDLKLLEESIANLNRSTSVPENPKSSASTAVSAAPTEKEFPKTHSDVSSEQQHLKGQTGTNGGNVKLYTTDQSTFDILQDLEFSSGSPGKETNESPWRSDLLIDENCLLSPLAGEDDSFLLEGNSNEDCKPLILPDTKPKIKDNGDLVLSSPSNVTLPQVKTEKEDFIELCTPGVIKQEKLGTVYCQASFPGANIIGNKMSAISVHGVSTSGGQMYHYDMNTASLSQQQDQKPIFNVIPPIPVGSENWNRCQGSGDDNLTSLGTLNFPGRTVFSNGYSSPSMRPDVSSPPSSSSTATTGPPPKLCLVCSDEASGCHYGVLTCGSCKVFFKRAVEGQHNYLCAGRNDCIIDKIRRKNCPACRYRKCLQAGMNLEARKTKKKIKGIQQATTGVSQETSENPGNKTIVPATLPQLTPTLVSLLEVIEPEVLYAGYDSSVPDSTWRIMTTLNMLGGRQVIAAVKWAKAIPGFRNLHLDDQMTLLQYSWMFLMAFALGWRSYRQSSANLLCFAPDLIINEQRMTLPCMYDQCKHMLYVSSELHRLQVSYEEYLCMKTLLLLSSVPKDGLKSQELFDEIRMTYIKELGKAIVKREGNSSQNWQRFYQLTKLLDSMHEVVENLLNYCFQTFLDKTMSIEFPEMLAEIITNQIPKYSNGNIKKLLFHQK
In words: U2OS-GR/3xGRE luciferase reporter cell line (full-length receptor). On the technique in general: In a reporter assay the amount or activity of a reporter protein is the signal.

In a further test the target is T2, human MR (full-length) (Homo sapiens, UniProt P08235).
T2 construct: expression vectors encoding full-length steroid receptors: pcDNA3-hAR, pcDNA3-hGR and pcDNA3-hMR; expressed in transfected cells; host or cells: U2OS
T2 sequence (P08235 1-984): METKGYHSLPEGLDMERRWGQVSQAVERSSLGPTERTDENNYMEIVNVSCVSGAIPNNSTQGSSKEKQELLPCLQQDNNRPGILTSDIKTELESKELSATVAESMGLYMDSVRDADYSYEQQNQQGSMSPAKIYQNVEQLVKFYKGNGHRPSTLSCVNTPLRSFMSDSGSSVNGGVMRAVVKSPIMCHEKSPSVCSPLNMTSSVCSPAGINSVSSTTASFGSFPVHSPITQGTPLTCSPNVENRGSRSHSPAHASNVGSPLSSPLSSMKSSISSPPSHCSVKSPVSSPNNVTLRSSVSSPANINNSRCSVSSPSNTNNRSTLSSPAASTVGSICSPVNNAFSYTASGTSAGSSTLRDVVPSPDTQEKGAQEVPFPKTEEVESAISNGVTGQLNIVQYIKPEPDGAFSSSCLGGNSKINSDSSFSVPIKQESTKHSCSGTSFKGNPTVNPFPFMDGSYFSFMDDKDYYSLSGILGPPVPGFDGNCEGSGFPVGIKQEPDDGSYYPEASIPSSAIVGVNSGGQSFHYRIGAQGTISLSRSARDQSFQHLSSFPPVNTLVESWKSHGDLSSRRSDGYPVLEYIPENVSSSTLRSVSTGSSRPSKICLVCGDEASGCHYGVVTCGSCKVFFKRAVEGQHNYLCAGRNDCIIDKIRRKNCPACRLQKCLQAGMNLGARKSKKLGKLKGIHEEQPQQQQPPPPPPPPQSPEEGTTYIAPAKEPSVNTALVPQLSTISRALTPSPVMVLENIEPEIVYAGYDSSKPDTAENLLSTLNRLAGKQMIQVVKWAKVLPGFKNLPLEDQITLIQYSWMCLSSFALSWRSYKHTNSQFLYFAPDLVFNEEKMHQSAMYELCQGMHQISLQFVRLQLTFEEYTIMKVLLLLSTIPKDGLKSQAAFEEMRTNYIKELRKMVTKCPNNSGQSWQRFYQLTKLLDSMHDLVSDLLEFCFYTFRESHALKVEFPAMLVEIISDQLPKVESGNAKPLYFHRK
In words: U2OS-MR/MMTV luciferase reporter cell line (full-length receptor). To be noted: for EC50: read-out: Log EC50 (converted).

Test [2] has as its target T1, human GR (full-length). In words: U2OS-GR/MMTV luciferase reporter cell line (full-length receptor).
A further test has as its target T3, GR-LBD fused to Gal4-DBD (Homo sapiens, UniProt P04150).
T3 construct: expressed in transfected cells; host or cells: U2OS
T3 sequence (P04150 524-758 limits assumed): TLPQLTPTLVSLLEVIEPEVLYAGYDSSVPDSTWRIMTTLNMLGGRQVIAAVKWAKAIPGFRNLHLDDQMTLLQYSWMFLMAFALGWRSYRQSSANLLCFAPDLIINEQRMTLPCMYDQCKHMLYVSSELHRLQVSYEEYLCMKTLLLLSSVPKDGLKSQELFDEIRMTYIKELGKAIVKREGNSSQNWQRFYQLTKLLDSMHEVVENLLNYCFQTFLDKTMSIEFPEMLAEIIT
In words: U2OS-GR-LBD/9xGal4UAS luciferase reporter cell line.

Another test concerns the target T4, MR-LBD fused to Gal4-DBD (Homo sapiens, UniProt P08235).
T4 construct: MR-LBD was cloned by RT-PCR from total RNA isolated from HEK293 cells; expressed in transfected cells; host or cells: U2OS
T4 sequence (P08235 726-964 limits assumed): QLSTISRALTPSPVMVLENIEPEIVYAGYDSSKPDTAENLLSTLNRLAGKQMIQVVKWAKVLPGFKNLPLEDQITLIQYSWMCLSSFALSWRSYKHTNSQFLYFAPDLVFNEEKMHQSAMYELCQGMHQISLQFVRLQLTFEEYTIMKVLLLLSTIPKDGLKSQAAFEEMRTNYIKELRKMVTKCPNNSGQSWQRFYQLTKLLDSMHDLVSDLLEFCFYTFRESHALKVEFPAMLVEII
As to the kind of experiment: U2OS-MR-LBD/9xGal4UAS luciferase reporter cell line. To be noted: for EC50: read-out: Log EC50 (converted).

The target of a further test is T5, PR-LBD fused to Gal4-DBD (Homo sapiens, UniProt P06401).
T5 construct: PR-LBD region was PCR amplified using the following primer combination; host or cells: U2OS
T5 sequence (P06401 679-913 limits assumed): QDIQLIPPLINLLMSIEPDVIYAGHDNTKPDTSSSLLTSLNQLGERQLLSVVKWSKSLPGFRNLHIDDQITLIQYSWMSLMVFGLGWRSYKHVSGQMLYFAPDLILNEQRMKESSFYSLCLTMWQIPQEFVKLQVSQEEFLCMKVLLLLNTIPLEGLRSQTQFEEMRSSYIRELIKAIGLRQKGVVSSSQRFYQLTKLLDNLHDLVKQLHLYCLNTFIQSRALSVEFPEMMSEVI
In words: U2OS-PR-LBD/9xGal4UAS luciferase reporter cell line. To be noted: for IC50: antagonist mode, PR-LBD/9xGal4UAS, log10 of molar IC50, mean ± SEM, read-out: Log IC50 (converted); for EC50: read-out: Log EC50 (converted).

Test [3] concerns the target T6, ERβ-LBD fused to Gal4-DBD (Homo sapiens, UniProt Q92731).
T6 construct: region comprising ERβ-LBD and a piece of the hinge region; expressed in transfected cells; host or cells: U2OS
In words: U2OS-ERβ-LBD/9xGal4UAS luciferase reporter cell line. To be noted: read-out: Log EC50 (converted).

Another test addresses T7, human ERβ (full-length) (Homo sapiens, UniProt Q92731).
T7 construct: expression vectors encoding full-length steroid receptors: pcDNA3-hERα and pcDNA3-ERβ; expressed in transfected cells; host or cells: U2OS
As to the kind of experiment: U2OS-ERβ/3xERE luciferase reporter cell line (full-length receptor). To be noted: for EC50: read-out: Log EC50 (converted).

T7 sequence (Q92731 whole entry): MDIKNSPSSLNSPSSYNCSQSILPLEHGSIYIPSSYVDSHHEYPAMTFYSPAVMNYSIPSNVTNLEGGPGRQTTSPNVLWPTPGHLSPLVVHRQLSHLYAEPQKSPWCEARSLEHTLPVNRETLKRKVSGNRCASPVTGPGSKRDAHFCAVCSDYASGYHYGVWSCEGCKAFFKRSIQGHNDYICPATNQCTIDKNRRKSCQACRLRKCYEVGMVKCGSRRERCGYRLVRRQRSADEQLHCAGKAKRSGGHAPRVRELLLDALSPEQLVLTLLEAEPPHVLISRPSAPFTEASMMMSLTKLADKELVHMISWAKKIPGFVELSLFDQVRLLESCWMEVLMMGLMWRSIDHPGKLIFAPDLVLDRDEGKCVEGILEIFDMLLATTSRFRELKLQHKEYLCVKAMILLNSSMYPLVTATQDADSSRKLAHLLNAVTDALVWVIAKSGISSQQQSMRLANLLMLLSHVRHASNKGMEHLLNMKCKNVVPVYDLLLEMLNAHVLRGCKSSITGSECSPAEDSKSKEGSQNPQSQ
T6 sequence (Q92731 264-498 limits assumed): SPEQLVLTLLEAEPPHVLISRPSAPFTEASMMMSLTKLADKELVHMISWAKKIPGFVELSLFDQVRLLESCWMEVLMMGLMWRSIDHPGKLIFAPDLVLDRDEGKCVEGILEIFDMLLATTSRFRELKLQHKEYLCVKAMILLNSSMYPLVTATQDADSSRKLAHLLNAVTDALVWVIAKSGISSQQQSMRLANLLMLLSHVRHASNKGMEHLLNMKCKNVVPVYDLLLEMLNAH

For 4-hydroxy-tamoxifen, the “Log EC50” value was over -5.00 M on human GR (full-length) [1] (agonist mode, GR/3xGRE, 20 h, log10 of molar EC50, mean ± SEM); over -5.00 M on human MR (full-length) (agonist mode, MR/MMTV, 20 h, log10 of molar EC50, mean ± SEM); over -5.00 M at human GR (full-length) [2] (agonist mode, GR/MMTV, 20 h, log10 of molar EC50, mean ± SEM); over -5.00 M on GR-LBD fused to Gal4-DBD (agonist mode, GR-LBD/9xGal4UAS, 20 h, log10 of molar EC50, mean ± SEM); over -5.00 M at MR-LBD fused to Gal4-DBD (agonist mode, MR-LBD/9xGal4UAS, 20 h, log10 of molar EC50, mean ± SEM). The “Log IC50” value is on record as over -5.00 M at human GR (full-length) [1] (antagonist mode, GR/3xGRE, in the presence of 5 nM dexamethasone, log10 of molar IC50, mean ± SEM); over -5.00 M on human MR (full-length) (antagonist mode, MR/MMTV, in the presence of 1 nM aldosterone, log10 of molar IC50, mean ± SEM); over -5.00 M at human GR (full-length) [2] (antagonist mode, GR/MMTV, in the presence of 5 nM dexamethasone, log10 of molar IC50, mean ± SEM); over -5.00 M at GR-LBD fused to Gal4-DBD (antagonist mode, GR-LBD/9xGal4UAS, in the presence of 5 nM dexamethasone, log10 of molar IC50, mean ± SEM); over -5.00 M on MR-LBD fused to Gal4-DBD (antagonist mode, MR-LBD/9xGal4UAS, in the presence of 1 nM aldosterone, log10 of molar IC50, mean ± SEM).
Broadly, the IC50 is the concentration needed to halve the response being measured. By EC50 is commonly meant the concentration that produces a half-maximal response. On to `CC(=O)C1(O)CCC2C3CCC4=CC(=O)CCC4(C)C3CCC21C` (stereo not drawn) [17α-hydroxyprogesterone], for which the half-maximal inhibitory concentration (IC50) on PR-LBD fused to Gal4-DBD was over 10 µM. The EC50 (on PR-LBD fused to Gal4-DBD; in test [3]; at human GR (full-length) [1] (read-out: Log EC50 (converted)); at human ERβ (full-length); on human GR (full-length) [2] (read-out: Log EC50 (converted)); on GR-LBD fused to Gal4-DBD (read-out: Log EC50 (converted))) was over 10 µM in each case.
With `C[C@H]1C[C@H]2[C@@H]3CCC4=CC(=O)C=C[C@]4(C)[C@@]3(F)[C@@H](O)C[C@]2(C)[C@@]1(O)C(=O)CO` [Betamethasone, betamethasone], at PR-LBD fused to Gal4-DBD, the IC50 is over 10 µM. Further, on PR-LBD fused to Gal4-DBD, the EC50 was 4.79 µM. Besides, the “activity profile in words” value at human MR (full-length) (full-length MR format, antagonist mode) is “no sign of antagonistic activity”; at MR-LBD fused to Gal4-DBD (MR-LBD expressing reporter cell line, agonist and antagonist mode), “only weakly and partially activated; also recorded: pronounced full antagonist effect”.
Take `CC(=O)O[C@]1(C(C)=O)CC[C@H]2[C@@H]3C=C(Cl)C4=CC(=O)[C@@H]5C[C@@H]5[C@]4(C)[C@H]3CC[C@@]21C` [Cyproterone acetate, cyproterone acetate]: the EC50 (in test [3]; on human MR (full-length); at human ERβ (full-length); at MR-LBD fused to Gal4-DBD) was over 10 µM in each case. In addition, at human ERβ (full-length) (ERβ reporter cell lines, even at 10 μM concentration), the “luciferase activity in ERβ reporter cell lines” value is “did not find any sign of luciferase activity”.
`CC/C(=C(/CC)c1ccc(O)cc1)c1ccc(O)cc1` [DES, Diethylstilbestrol]: the EC50 on human MR (full-length) and on MR-LBD fused to Gal4-DBD was over 10 µM throughout.
